In patent US20200155609A1, “COMPOSITIONS AND METHODS OF MAKING EXPANDED HEMATOPOIETIC STEM CELLS USING PTEN INHIBITORS” (Transfusion Health LLC, priority 2017, published 2020):

Experiments:
[1] = test system: CD34+ cells isolated from donor non-mobilized peripheral blood; experiment: Titration of SF1670 on CD34+ cells from non-mobilized peripheral blood, flow cytometry (Example 20); format: cell-based, human
Description: CD34+ cells were isolated from donor peripheral blood. Standard ficoll paque layering was used to separate the buffy coat. Cells then undergo negative depletion using biotinylated CD2, CD3, CD4, CD5, CD8, CD1 Ib, CD14, CD16, CD19, CD20, CD45RA, CD56, CD235 (in some examples CD15, CD25 and other lineage specific antibodies may also be used). Cells which bind these antibodies are depleted using streptavidin beads. The depleted cell pool was sorted for CD34+ cells before being placed in cell culture.
(§1) Isolated CD34+ cells were incubated in an in vitro culture media of Alpha MEM without phenol red, 10% (v/v) heat inactivated fetal bovine serum (FBS) and +SF conditions. +SF conditions included the components described in Table 5. The culture also included an antibiotic solution that includes penicillin, streptomycin, and amphotericin B to avoid contamination.
(§2) Cultures were incubated at 3% oxygen (controlled by nitrogen) and 5% CO2.
(§3) Small molecule components were added separately and fresh each time the media needs to be refreshed. Cytokines can be stored together. Media renewal should occur at least every few days.
(§4) On the days indicated one-half of the volume of the cell culture was removed for data analysis (flow cytometry using a BD FACS ARIA II). The culture volume was replenished with fresh media according to the conditions tested. The data reported accounts for the dilution factor introduced in this procedure.

[2] = test system: CD34+ cells isolated from donor non-mobilized peripheral blood (hematopoietic stem cells); experiment: Culture of CD34+ cells from non-mobilized peripheral blood with SF1670 or SF1670 and ER50891, flow cytometry (Example 17); format: cell-based, human; details: after 7 days in culture, SF1670 250 nM (ER50891 100 nM), compared with Base conditions
Method: CD34+ cells were isolated from donor peripheral blood. Whole blood was centrifuged at 1750×g (the speed of centriguation may vary) for 20 minutes. Plasma was drawn off using a pipette or syringe. Concentrated red blood cell (RBC) layer was drawn off with a pipette or syringe. Residual RBCs were lysed using standard RBC lysis protocols. White blood cell (WBC) layer was washed in PBS and spun down several times at 300 g for 7 minutes to remove platelets and some debris. Cells were pelleted and incubated with unlabeled CD64 antibody. Cells then undergo negative depletion using biotinylated CD2, CD3, CD4, CD5, CD8, CD11b, CD14, CD16, CD19, CD20, CD45RA, CD56, CD235 (in some examples CD15, CD25 and other lineage specific antibodies may also be used). Cells which bind these antibodies are depleted using streptavidin beads. The resultant progenitor enriched cell pool were cultured directly (residual mature cells and late progenitors will be killed off over time in culture) or cell pool can undergo a CD34 or CD133 positive selection to further enrich for the desired cells before culturing.
as §1, with “(FBS). Base Conditions, +SF Conditions,” for “(FBS)”, “+SF/+ER” for “+SF conditions. +SF”, “conditions further” for “conditions”, “2. Each condition tested” for “5. The culture”
as §2, §3, §4

[3] = test system: hematopoietic stem cells derived from cord blood; experiment: Culture of cord blood with SF1670, flow cytometry (Example 19); format: cell-based, human
Method: A frozen cord blood sample was thawed and gradually brought to room temperature. Thawed cord blood was incubated in an in vitro culture media of Alpha MEM without phenol red, 10% (v/v) heat inactivated fetal bovine serum (FBS). Base Conditions and +SF Conditions further included the components described in Table 4. Each condition tested also included an antibiotic solution that includes penicillin, streptomycin, and amphotericin B to avoid contamination.
as §2, §3, §4

[4] = test system: Primary human CD34+ cells isolated from mobilized peripheral blood; experiment: Relative expansive effect (relative cell number), mobilized peripheral blood CD34+ cells in StemSpan SFEM (Example 23); format: cell-based
Method: Mobilized peripheral blood was purchased from StemCell Technologies. The blood was mobilized using G-CSF from volunteer donors. Volunteers were administered a maximum of 10 ug/kg/day of granulocyte colony-stimulating factor (G-CSF) for 3-5 days prior to collection. Primary human CD34+ cells were isolated from mobilized peripheral blood leukapheresis samples using positive immunomagnetic separation techniques.
Isolated CD34+ cells were incubated in an in vitro culture media of StemSpan SFEM. When testing the substituted derivatives of 9,10-dihydrophenathrene (+Derivative conditions), two internal controls were used: a positive control (+SF conditions) and a baseline control (i.e, basic conditions (“cytokines only”)). The media components and concentrations used for the compounds tested are described in Table 8, above. The culture also included an antibiotic solution that includes penicillin, streptomycin, and amphotericin B to avoid contamination. Controls were included because the amount of expansion in samples obtained varies from individual to individual.
Cultures were incubated at 3% oxygen (controlled by nitrogen) and 5% CO2. […]
Table 10, below, summarizes the relative expansive effect of Compound 1.013 at the indicated concentration. […] Relative cell number is calculated as described in Example 22.

Row | Structure (SMILES) | expansive effect on the enhancement of hematopoietic stem cells over the control condition (0 nM SF1670) ([1]; SF1670 125 nM, 250 nM and 500 nM, FIG. 5B-5E) | expansion of any cell type (total cells) ([1]; SF1670 1000 nM, FIG. 5A) | expansive effect ([1]; SF1670 1000 nM, days 4 and 7, FIG. 5A-5E) | number of CD34+ cells ([2]; FIG. 1A) | number of CD133+ cells ([2]; FIG. 1B) | number of CD90+ cells ([2]; FIG. 1C) | total number of CD34+ cells ([3]; +SF conditions (SF1670 500 nM) vs Base conditions, FIG. 3B) | total number of CD133+ cells ([3]; +SF conditions (SF1670 500 nM) vs Base conditions, FIG. 3C) | total number of CD90+ cells ([3]; +SF conditions (SF1670 500 nM) vs Base conditions, FIG. 3D) | total number of CD38− cells ([3]; +SF conditions (SF1670 500 nM) vs Base conditions, FIG. 3E) | fold increase in CD34+ cells from day 2 ([3]; SF1670 500 nM, after 16 days in culture, FIG. 4B) | fold increase in CD133+ cells from day 2 ([3]; SF1670 500 nM, after 16 days in culture, FIG. 4C) | fold increase in CD90+ cells from day 2 ([3]; SF1670 500 nM, after 16 days in culture, FIG. 4D) | fold increase in CD38− cells from day 2 ([3]; SF1670 500 nM, after 16 days in culture, FIG. 4E) | CD133 effect (relative expansive effect, relative cell number) ([4]; 7 days in culture, 1 μM sample compound, mobilized peripheral blood, StemSpan SFEM) | expansive effect on HSCs in culture ([4]; number of cells per well after 7 days, FIG. 18)
1 | CC(C)(C)C(=O)Nc1ccc2c(c1)C(=O)C(=O)c1ccccc1-2 [SF1670] | at least some expansive effect | very little expansion | reduced expansive effect | increased numbers | increased numbers | increased numbers | increase | increase | increase | increase | greater than 50 fold | greater than 50 fold | ~30 fold | ~5 fold |  | 
2 | O=C1C(=O)c2ccc(O)cc2-c2ccccc21 [Compound 1.013, 3-hydroxyphenanthrene-9,10-dione] |  |  |  |  |  |  |  |  |  |  |  |  |  |  | +++ (0.55 ≤ x < 0.9) | positive expansive effect
